Results on two substances are retold here after patent US12551533B2, “Intranasal neuropeptides for use in stress-related impairments” (New York Medical College, priority 2019, dated 2026).

The subject of assay [1] is Single Prolonged Stress (SPS) model of PTSD. Description: Elevated plus maze (EPM) one week after SPS stressors, early intervention with intranasal peptide. The class given is in vivo, rat. As for the experimental part:
(§1) After 7 days, the animals were tested on the elevated plus maze (EPM) for 5 min for various features of anxiety and locomotion and 5 days later for depressive/despair symptoms on the Forced Swim Tet (FST).
Based on the performance on the EPM the anxiety index was calculated for each rat. […] (FIG. 2B)
(§2) After a two week accommodation period rats were exposed to SPS stressors. […] Control unstressed rats were handled briefly and weighed on the same day. They were left undisturbed for a week and then tested for anxiety on Elevated Plus Maze (EPM) together with unstressed control rats. Five days later all the animals were tested for depresssive/dispair behavior by the Forced Swim Test (FST).
Based on the performance on the EPM the anxiety index was calculated for each rat. The anxiety index=1−[(time spent in open arm/total time on the maze)/2+(number of entries to the open arms/total exploration on the maze)/2] and is shown in FIG. 2. […] Each point represents the values for an individual animal.

Assay [2] shares this test system. Description: Social interaction test with juvenile rat, three weeks after SPS stressors. The class given is in vivo. The conditions noted are these: intranasal NPY 200 μg or D-H 150 μg per rat immediately after SPS; SI 7 days after the EPM. On the procedure:
(§3) FIG. 6 depicts a diagram of the experimental procedure (FIGS. 7-8). […] After two weeks the animals were tested on the elevated plus maze (EPM) for 5 min and 7 days later for social interaction (SI).
(§4) The experimental design was as depicted in FIG. 6. […] After two weeks they were tested on the elevated plus maze (EPM) for 5 min and 7 days later for social interaction (SI).

The test system is the same in assay [3]. Description: Forced Swim Test (FST) 12 days after SPS stressors, early intervention with intranasal peptide. The conditions noted are these: intranasal 150 μg/rat immediately after SPS, vs SPS/V. In kind it is in vivo. As for the experimental part:
as §1
The immobility time on the FST, which reflects depressive-lie behavior, despair or altered coping style was determined.
as §2

For assay [4] the test system is unchanged. Description: Elevated plus maze (EPM) two weeks after SPS stressors, early intervention with intranasal peptide. In kind it is in vivo. As to conditions: intranasal NPY 200 μg or D-H 150 μg per rat immediately after SPS. On the procedure: as §3, §4
The test system is the same in assay [5]. Description: EPM after intranasal treatment given 2 weeks after SPS (reversal of manifested symptoms). In kind it is in vivo. As to conditions: intranasal 300 μg/rat given 2 weeks after SPS; EPM four days later; vs SPS/V. The source says:
FIG. 9A. Scheme of the experiment; FIG. 9B. Duration in the closed arms, an indication of anxiety; FIG. 9C. Anxiety index. *p<0.05, ***p<0.001.

Assay [6] relates to SPS elicited development of depressive symptoms. As to conditions: intranasal infusion after traumatic stress; cited from earlier work.
Setting [7] is: intranasal 150 μg/rat immediately after SPS, one week after SPS.
[8] abbreviates: intranasal 150 μg/rat immediately after SPS, one week after SPS, listed as [D-^26His]NPY.

“Also recorded” adds a separate entry of the source.

Turning to [D^26-His]NPY [[D^26His]NPY], in assay [1] (setting [7]), the “distance travelled on the EPM (locomotion)” value is “did not reduce the distance traveled”, the “duration of head dips on the EPM” value is on record as “prevent the SPS triggered reduction; also recorded: more effective than NPY” and the “frequency of head dips on the EPM” value is “prevent the SPS triggered reduction; also recorded: more effective than NPY”. In assay [1] (setting [8]), the “duration of head dips on the EPM” value is reported as “recovered” and the “frequency of head dips on the EPM” value was “recovered”. In assay [2], the “interaction time on the social interaction test” value is given as “prevented” and the “number of approaches on the social interaction test” value is listed as “prevented”. Further, the “immobility time in the Forced Swim Test” value in assay [3] (listed as D-H) is “superior to NPY”. The “immobility time in the Forced Swim Test” value in assay [3] (listed as DH) was “reduced; also recorded: significantly more effective than NPY”. The “entries and duration in the open arms of the EPM” value in assay [4] was “as effective as NPY”. The “duration in the closed arms of the EPM” value in assay [5] is reported as “less time in the closed arms”.

Regarding [Leu^31Pro^34]NPY [reference compound], the “SPS elicited anxiety (anxiety index on the EPM, FIG. 2B)” value in assay [1] (intranasal, at a concentration which prevents SPS elicited depressive symptoms, seven days after SPS) is “did not reduce the SPS elicited anxiety; also recorded: ineffective”. Also, the “development of depressive-like symptoms after traumatic stress” value in assay [6] is reported as “prevented development of depressive-like symptoms”.
